Measured values taken from patent US10351519B2, “Sulfamate derivative compounds, processes for preparing them and their uses” (BIO-PHARM SOLUTIONS CO., LTD., priority 2016, dated 2019).

Legend:
ICR mice [1] = assay: Anti-epilepsy activity, MES test, mouse; assay type: in vivo
Description: In the MES test (Ref., G. Villetti et al. Neuropharmacology 40 (2001) 866-878), an electrical stimulus (mice: 50 mA, 60 Hz, 0.2 sec, and rats: 150 mA, 60 Hz, 0.2 sec in the test animal) supplied by an 11A Shocker (IITC Life Science Company) was delivered through corneal electrodes. All mice or rats assigned to any electroshock at peak time were treated with each test compound sample which was dissolved in 30% PEG 400 or 20% tween 80 prepared by saline solvent applied orally before the test. […] Three doses of the test sample were administered orally to 9-18 animals (3-6 mice per dose) for evaluating the respective doses at which 50% of the animals were protected from seizure (ED50). The ED50 value (median effective dose) was calculated by Litchfield and Wicoxon log-probit method which is a dose-response relationship. Experimental animals, male ICR mice and male SD rats, were purchased from OrientBio, Samtako, or Nara Biotech, Korea, and housed in cages (4-5 mice or 3 rats per cage) for 4-5 days. The range of mice body weight was between 19 and 25 grams and range of rats body weight was between 100 and 130 grams.

ICR mice [2] = assay: Chemical induced seizure model (PIC, picrotoxin); assay type: in vivo
Description: Picrotoxin (PIC) were used to induce the behavioral seizures in the experiments. Male ICR mice (purchased from Orient Bio Inc. Korea) of body weight 19-26 g (mice) were used for these studies. The test materials were administered intraperitoneal (ip) route in a volume of 10 ul/g (mice) weight in mice, respectively. Pharmacological effects of the test materials were evaluated to compared test groups (n=6) with a control group (n=6). Control group was administrated vehicle, only. The peak time was determined by administration of test material's random dose for 0.5, 1, 2, 4 hour. The time that the most protect was defined as a peak time and ED50 was determined by other dose administration at the peak time. Chemical (PIC) was dissolved in 0.9% saline and administered subcutaneously (s.c.) at its CD97 (convulsive dose 97%), the dose of Chemical (PIC) that produced clonic seizures in 97% into a loose fold of skin in the midline of the neck in a volume of 10 ul/g (mice) body weight. The animals were then transferred to observation cages and observed continuously for 45 min (PIC). Clonic seizure was elicited in approximately 97% of control group. Protection was defined as a complete absence of clonic seizure over the 45-min observation period. The effective dose of compound necessary to protect against generalized convulsive seizures to 50% of controls (i.e. ED50) was determined by log probit analysis using SPSS software program (SPSS Inc.). (Reference; White H. S., J. H. Woodhead, K. S. Wilcox, J. P. Stables, H. J. Kupferberg, and H. H. Wolf. General Principles; Discovery and Preclinical De-velopment of Antiepileptic Drugs. In: R. H. Levy, R. H. Mattson, B. S. Meldrum, and E. Perucca, eds. Antiepileptic Drugs, 5th Ed. Lippincott Williams & Wilkins, Philadelphia 2002: pp. 36-48.) The obtained results are shown in following Table 10.

C[C@@H](OS(N)(=O)=O)[C@H](OS(N)(=O)=O)c1ccccc1Cl [Example 85]
MES test (po) Peak time (ICR mice [1]): 2 h | responders at 100 mg/kg (ICR mice [1]; po, 100 mg/kg, read-out: MES test (po) efficacy %): 16.6% | PIC(ip) Peak Time (ICR mice [2]): 4 h | PIC(ip) efficacy % (ICR mice [2]; 30 mg/kg): 30(33.3%)
